Results on two compounds are retold here after ChEMBL document CHEMBL1153818, “Integration of ligand and structure-based virtual screening for the identification of the first dual targeting agent for heat shock protein 90 (Hsp90) and tubulin” (J Med Chem, 2009).

The source made the active and inactive calls. The rule behind the calls is not given here.

In test [1] the test system is MCF7. Kind of test: Induction of ERalpha degradation in human MCF7 cells at 1 uM after 24 hrs by Western blot analysis. In kind it is functional, cell-based. A general note: Immunoblotting shows a protein as a band on a membrane.
For a further test, the species on record is Bos taurus. Briefly: Inhibition of bovine tubulin polymerization.
In test [2] the test system is MCF7. Briefly: Induction of ERalpha degradation in human MCF7 cells at 200 uM after 24 hrs by Western blot analysis. Type of test: functional, cell-based.
The target of test [3] is Heat shock protein HSP 90-beta (Homo sapiens, UniProt P08238). Briefly: Inhibition of Hsp90 by FP ATP-site binding assay.
Sequence of Heat shock protein HSP 90-beta (P08238 whole entry): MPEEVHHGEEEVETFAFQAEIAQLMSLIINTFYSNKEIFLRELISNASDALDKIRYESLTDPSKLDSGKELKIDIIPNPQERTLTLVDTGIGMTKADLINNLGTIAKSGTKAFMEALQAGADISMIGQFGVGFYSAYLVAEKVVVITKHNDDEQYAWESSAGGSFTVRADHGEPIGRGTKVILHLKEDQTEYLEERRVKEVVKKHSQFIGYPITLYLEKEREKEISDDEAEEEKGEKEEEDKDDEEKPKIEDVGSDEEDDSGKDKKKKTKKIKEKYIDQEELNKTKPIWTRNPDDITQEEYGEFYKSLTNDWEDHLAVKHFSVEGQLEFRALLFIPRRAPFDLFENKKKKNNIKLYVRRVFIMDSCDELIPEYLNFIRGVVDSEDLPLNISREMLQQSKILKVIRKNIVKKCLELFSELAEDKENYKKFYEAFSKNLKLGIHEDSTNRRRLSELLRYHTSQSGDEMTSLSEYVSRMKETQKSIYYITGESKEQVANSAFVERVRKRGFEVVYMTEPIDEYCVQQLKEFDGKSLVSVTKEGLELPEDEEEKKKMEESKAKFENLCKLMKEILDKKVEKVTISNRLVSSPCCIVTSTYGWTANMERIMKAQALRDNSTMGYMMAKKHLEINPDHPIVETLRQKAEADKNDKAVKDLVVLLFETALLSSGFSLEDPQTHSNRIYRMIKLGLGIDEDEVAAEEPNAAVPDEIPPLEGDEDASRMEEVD

Usually IC50 stands for the concentration at which inhibition is half-maximal. High values mean weaker potency in that assay, low ones greater potency in that assay.

`C=CCNC1=C2C[C@@H](C)C[C@H](OC)[C@H](O)[C@@H](C)/C=C(\C)[C@H](OC(N)=O)[C@@H](OC)/C=C\C=C(/C)C(=O)NC(=CC1=O)C2=O`: the outcome in the test with MCF7 [1] was Active.

On to `COc1cc(C(=O)n2ncc3cc(N)ccc32)cc(OC)c1OC`, for which the Activity result in the test listed under Bos taurus is “Dose-dependent effect”. Moreover, the result in the test with MCF7 [2] was Active. In addition, the half-maximal inhibitory concentration (IC50) in test [3] is 80.8 µM.
